Reference: PubChem BioAssay AID248 (DTP/NCI, 2004)
“And” between values parts separate entries of the source, which are not always exact repeats. Equal values may be shown once. Inconclusive results and toxic doses are left out.

Test system: L1210 leukemia ip in BDF1 mice, survival T/C
Assay: NCI In Vivo Anticancer Drug Screen. Data for tumor model L1210 Leukemia (intraperitoneal) in B6D2F1 (BDF1) mice
Conditions: higher = longer survival
Procedure, shortened: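 Read-out is survival time, reported as the treated-group measurement over the vehicle-control measurement.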

SMILES: N[C@H](C(=O)O)[C@H]1ON=C(Cl)[C@@H]1O
- T/C (endpoint: mean survival time, dose: 0.78 mg/kg/injection, schedule: Q01DX009 (ip), vehicle: saline): 108 % of control
- T/C (endpoint: mean survival time, dose: 5.5 mg/kg/injection, schedule: Q01DX009 (ip), vehicle: Klucel (hydroxypropylcellulose) (HPC)): 108 % of control
- T/C (endpoint: mean survival time, dose: 25.0 mg/kg/injection, schedule: Q01DX009 (ip), vehicle: Klucel (hydroxypropylcellulose) (HPC)): 118 % of control
- T/C (endpoint: mean survival time, dose: 50.0 mg/kg/injection, schedule: Q01DX009 (ip), vehicle: Klucel (hydroxypropylcellulose) (HPC)): 150 % of control
- T/C (endpoint: mean survival time, dose: 66.0 mg/kg/injection, schedule: Q01DX009 (ip), vehicle: Klucel (hydroxypropylcellulose) (HPC)): 151 % of control
- T/C (endpoint: mean survival time, dose: 100.0 mg/kg/injection, schedule: Q01DX009 (ip), vehicle: Klucel (hydroxypropylcellulose) (HPC)): 154 % of control and 158 % of control
- T/C (endpoint: mean survival time, dose: 150.0 mg/kg/injection, schedule: Q01DX009 (ip), vehicle: Klucel (hydroxypropylcellulose) (HPC)): 104 % of control
- T/C (endpoint: median survival time, dose: 4.0 mg/kg/injection, schedule: Q03HX008 (ip), vehicle: saline): 123 % of control
- T/C (endpoint: median survival time, dose: 4.0 mg/kg/injection, schedule: Q03HX024 (ip), vehicle: saline): 154 % of control
- T/C (endpoint: median survival time, dose: 6.25 mg/kg/injection, schedule: Q03HX016 (ip), vehicle: saline): 154 % of control
- T/C (endpoint: median survival time, dose: 6.25 mg/kg/injection, schedule: Q03HX024 (ip), vehicle: saline): 189 % of control
- T/C (endpoint: median survival time, dose: 8.0 mg/kg/injection, schedule: Q01DX009 (sc), vehicle: saline): 118 % of control
- T/C (endpoint: median survival time, dose: 8.0 mg/kg/injection, schedule: Q03HX016 (ip), vehicle: saline): 153 % of control
- T/C (endpoint: median survival time, dose: 12.5 mg/kg/injection, schedule: Q03HX016 (ip), vehicle: saline): 152 % of control
- T/C (endpoint: median survival time, dose: 12.5 mg/kg/injection, schedule: Q03HX024 (ip), vehicle: saline): 170 % of control
- T/C (endpoint: median survival time, dose: 16.0 mg/kg/injection, schedule: Q03HX016 (ip), vehicle: saline): 150 % of control
- T/C (endpoint: median survival time, dose: 25.0 mg/kg/injection, schedule: Q01DX001 (ip), vehicle: saline): 113 % of control
- T/C (endpoint: median survival time, dose: 25.0 mg/kg/injection, schedule: Q01DX009 (ip), vehicle: saline): 171 % of control
- T/C (endpoint: median survival time, dose: 25.0 mg/kg/injection, schedule: Q03HX016 (ip), vehicle: saline): 160 % of control
- T/C (endpoint: median survival time, dose: 25.0 mg/kg/injection, schedule: Q08DX002 (ip), vehicle: saline): 104 % of control
- T/C (endpoint: median survival time, dose: 32.0 mg/kg/injection, schedule: Q01DX001 (ip), vehicle: saline): 105 % of control
- T/C (endpoint: median survival time, dose: 32.0 mg/kg/injection, schedule: Q01DX001 (sc), vehicle: saline): 105 % of control
- T/C (endpoint: median survival time, dose: 32.0 mg/kg/injection, schedule: Q03HX016 (ip), vehicle: saline): 150 % of control
- T/C (endpoint: median survival time, dose: 32.0 mg/kg/injection, schedule: Q03HX024 (ip), vehicle: saline): 153 % of control
- T/C (endpoint: median survival time, dose: 32.0 mg/kg/injection, schedule: Q04DX003 (ip), vehicle: saline): 122 % of control
- T/C (endpoint: median survival time, dose: 32.0 mg/kg/injection, schedule: Q08DX002 (ip), vehicle: saline): 111 % of control
- T/C (endpoint: median survival time, dose: 50.0 mg/kg/injection, schedule: Q01DX001 (ip), vehicle: saline): 113 % of control
- T/C (endpoint: median survival time, dose: 50.0 mg/kg/injection, schedule: Q03HX016 (ip), vehicle: saline): 158 % of control
- T/C (endpoint: median survival time, dose: 50.0 mg/kg/injection, schedule: Q08DX002 (ip), vehicle: saline): 108 % of control
- T/C (endpoint: median survival time, dose: 64.0 mg/kg/injection, schedule: Q01DX001 (ip), vehicle: saline): 100 % of control
- T/C (endpoint: median survival time, dose: 64.0 mg/kg/injection, schedule: Q01DX001 (sc), vehicle: saline): 106 % of control
- T/C (endpoint: median survival time, dose: 64.0 mg/kg/injection, schedule: Q01DX009 (oral), vehicle: saline): 115 % of control
- T/C (endpoint: median survival time, dose: 64.0 mg/kg/injection, schedule: Q01DX009 (sc), vehicle: saline): 151 % of control
- T/C (endpoint: median survival time, dose: 64.0 mg/kg/injection, schedule: Q03HX024 (ip), vehicle: saline): 153 % of control
- T/C (endpoint: median survival time, dose: 64.0 mg/kg/injection, schedule: Q04DX003 (ip), vehicle: saline): 122 % of control
- T/C (endpoint: median survival time, dose: 64.0 mg/kg/injection, schedule: Q08DX002 (ip), vehicle: saline): 113 % of control
- T/C (endpoint: median survival time, dose: 100.0 mg/kg/injection, schedule: Q01DX001 (ip), vehicle: saline): 104 % of control
- T/C (endpoint: median survival time, dose: 100.0 mg/kg/injection, schedule: Q01DX009 (ip), vehicle: saline): 169 % of control
- T/C (endpoint: median survival time, dose: 100.0 mg/kg/injection, schedule: Q03HX016 (ip), vehicle: saline): 152 % of control
- T/C (endpoint: median survival time, dose: 100.0 mg/kg/injection, schedule: Q03HX024 (ip), vehicle: saline): 202 % of control
- T/C (endpoint: median survival time, dose: 100.0 mg/kg/injection, schedule: Q04DX003 (ip), vehicle: saline): 122 % of control
- T/C (endpoint: median survival time, dose: 100.0 mg/kg/injection, schedule: Q08DX002 (ip), vehicle: saline): 114 % of control
- T/C (endpoint: median survival time, dose: 128.0 mg/kg/injection, schedule: Q01DX001 (ip), vehicle: saline): 108 % of control
- T/C (endpoint: median survival time, dose: 128.0 mg/kg/injection, schedule: Q01DX001 (sc), vehicle: saline): 104 % of control
- T/C (endpoint: median survival time, dose: 128.0 mg/kg/injection, schedule: Q01DX009 (ip), vehicle: saline): 151 % of control
- T/C (endpoint: median survival time, dose: 128.0 mg/kg/injection, schedule: Q01DX009 (sc), vehicle: saline): 163 % of control
- T/C (endpoint: median survival time, dose: 128.0 mg/kg/injection, schedule: Q03HX024 (ip), vehicle: saline): 152 % of control
- T/C (endpoint: median survival time, dose: 128.0 mg/kg/injection, schedule: Q04DX003 (ip), vehicle: saline): 108 % of control
- T/C (endpoint: median survival time, dose: 128.0 mg/kg/injection, schedule: Q08DX002 (ip), vehicle: saline): 102 % of control
- T/C (endpoint: median survival time, dose: 200.0 mg/kg/injection, schedule: Q01DX001 (ip), vehicle: saline): 108 % of control
- T/C (endpoint: median survival time, dose: 200.0 mg/kg/injection, schedule: Q01DX009 (ip), vehicle: saline): 104 % of control
- T/C (endpoint: median survival time, dose: 200.0 mg/kg/injection, schedule: Q08DX002 (ip), vehicle: saline): 104 % of control
- T/C (endpoint: median survival time, dose: 256.0 mg/kg/injection, schedule: Q01DX001 (ip), vehicle: saline): 104 % of control
- T/C (endpoint: median survival time, dose: 256.0 mg/kg/injection, schedule: Q01DX001 (oral), vehicle: saline): 108 % of control and 109 % of control
- T/C (endpoint: median survival time, dose: 256.0 mg/kg/injection, schedule: Q01DX001 (sc), vehicle: saline): 104 % of control
- T/C (endpoint: median survival time, dose: 256.0 mg/kg/injection, schedule: Q01DX009 (ip), vehicle: saline): 153 % of control
- T/C (endpoint: median survival time, dose: 256.0 mg/kg/injection, schedule: Q01DX009 (oral), vehicle: saline): 115 % of control and 90 % of control
- T/C (endpoint: median survival time, dose: 256.0 mg/kg/injection, schedule: Q08DX002 (ip), vehicle: saline): 99 % of control
- T/C (endpoint: median survival time, dose: 400.0 mg/kg/injection, schedule: Q01DX001 (ip), vehicle: saline): 117 % of control
- T/C (endpoint: median survival time, dose: 400.0 mg/kg/injection, schedule: Q08DX002 (ip), vehicle: saline): 122 % of control
- T/C (endpoint: median survival time, dose: 512.0 mg/kg/injection, schedule: Q01DX001 (ip), vehicle: saline): 105 % of control
- T/C (endpoint: median survival time, dose: 512.0 mg/kg/injection, schedule: Q01DX001 (oral), vehicle: saline): 115 % of control and 118 % of control
- T/C (endpoint: median survival time, dose: 512.0 mg/kg/injection, schedule: Q01DX001 (sc), vehicle: saline): 107 % of control
- T/C (endpoint: median survival time, dose: 512.0 mg/kg/injection, schedule: Q01DX009 (oral), vehicle: saline): 87 % of control
- T/C (endpoint: median survival time, dose: 512.0 mg/kg/injection, schedule: Q08DX002 (ip), vehicle: saline): 102 % of control
- T/C (endpoint: median survival time, dose: 1024.0 mg/kg/injection, schedule: Q01DX001 (ip), vehicle: saline): 114 % of control
- T/C (endpoint: median survival time, dose: 1024.0 mg/kg/injection, schedule: Q01DX001 (oral), vehicle: saline): 114 % of control
- T/C (endpoint: median survival time, dose: 1024.0 mg/kg/injection, schedule: Q01DX001 (sc), vehicle: saline): 109 % of control
- T/C (endpoint: median survival time, dose: 1024.0 mg/kg/injection, schedule: Q08DX002 (ip), vehicle: saline): 118 % of control

SMILES: COC(OC)c1[nH]c(=S)[nH]c(=O)c1Cc1ccccc1Cl
- T/C (endpoint: mean survival time, dose: 100.0 mg/kg/injection, schedule: Q04DX002 (ip), vehicle: Klucel (hydroxypropylcellulose) (HPC)): 97 % of control
- T/C (endpoint: mean survival time, dose: 200.0 mg/kg/injection, schedule: Q04DX002 (ip), vehicle: Klucel (hydroxypropylcellulose) (HPC)): 97 % of control
- T/C (endpoint: mean survival time, dose: 400.0 mg/kg/injection, schedule: Q04DX002 (ip), vehicle: Klucel (hydroxypropylcellulose) (HPC)): 105 % of control

SMILES: CCCNC(c1ccccc1)=[N+]1C(C)CCCC1C (stereo unspecified)
- T/C (endpoint: mean survival time, dose: 12.5 mg/kg/injection, schedule: Q04DX002 (ip), vehicle: saline): 101 % of control
- T/C (endpoint: mean survival time, dose: 25.0 mg/kg/injection, schedule: Q04DX002 (ip), vehicle: saline): 109 % of control

SMILES: O=[N+]([O-])c1cccc(Cl)c1Oc1cc(Cl)c(Cl)cc1Cl
- T/C (endpoint: mean survival time, dose: 1.25 mg/kg/injection, schedule: Q01DX001 (ip), vehicle: saline): 105 % of control
- T/C (endpoint: mean survival time, dose: 2.5 mg/kg/injection, schedule: Q01DX001 (ip), vehicle: saline): 105 % of control
- T/C (endpoint: mean survival time, dose: 5.0 mg/kg/injection, schedule: Q01DX001 (ip), vehicle: saline): 102 % of control
- T/C (endpoint: mean survival time, dose: 10.0 mg/kg/injection, schedule: Q01DX001 (ip), vehicle: saline): 96 % of control

SMILES: CC(=O)Nc1ccc(/C=N/NC(=S)Nc2cccc3cccnc23)cc1
- T/C (endpoint: mean survival time, dose: 100.0 mg/kg/injection, schedule: Q01DX001 (ip), vehicle: saline): 92 % of control
- T/C (endpoint: mean survival time, dose: 200.0 mg/kg/injection, schedule: Q01DX001 (ip), vehicle: saline): 97 % of control
- T/C (endpoint: mean survival time, dose: 400.0 mg/kg/injection, schedule: Q01DX001 (ip), vehicle: saline): 97 % of control
